Test results: patent US20140018347A1, “BENZOXAZEPINES AS INHIBITORS OF mTOR AND METHODS OF THEIR USE AND MANUFACTURE” (Exelixis, Inc., priority 2010, published 2014)

Experiments:
[1] = biological target: mTORC1 (Homo sapiens, UniProt P42345); assay: mTOR/GbL/Raptor (mTORC1) ELISA Assay; type: biochemical; conditions: phosphorylation of 4E-BP1; 0.2 nM mTORC1, 10 μM ATP
Procedure: The measurement of mTORC1 enzyme activity was performed in an ELISA assay format following the phosphorylation of 4E-BP1 protein. All experiments were performed in the 384-well format. Generally, 0.5 μL DMSO containing varying concentrations of the test compound was mixed with 15 μL enzyme solution. Kinase reactions were initiated with the addition of 15 μL of substrates-containing solution. The assay conditions were as follows; 0.2 nM mTORC1, 10 μM ATP and 50 nM NHis-tagged 4E-BP1 in 20 mM Hepes, pH 7.2, 1 mM DTT, 50 mM NaCl, 10 mM MnCl2, 0.02 mg/mL BSA, 0.01% CHAPS, 50 mM β-glycerophosphate. Following an incubation of 120 minutes at ambient temperature, 20 μL of the reaction volume was transferred to a Ni-Chelate-coated 384-well plate. The binding step of the 4E-BP1 protein proceeded for 60 minutes, followed by washing 4 times each with 50 μL of Tris-buffered saline solution (TBS). Anti-phospho-4E-BP1 rabbit-IgG (20 μL, 1:5000) in 5% BSA-TBST (0.2% Tween-20 in TBS) was added and further incubated for 60 minutes. Incubation with a secondary HRP-tagged anti-IgG was similarly performed after washing off the primary antibody (4 washes of 50 μL). Following the final wash step with TBST, 20 μL of SuperSignal ELISA Femto (Pierce Biotechnology) was added and the luminescence measured using an EnVision plate reader.

[2] = biological target: PI3Kalpha (Homo sapiens, UniProt P42336); assay: PI3K Biochemical Assays (PI3K-alpha assay); conditions: ATP consumption, luciferase-luciferin; 1 μM ATP, 10 μM PIP2
Procedure: PI3Kn activity was measured as the percent of ATP consumed following the kinase reaction using luciferase-luciferin-coupled chemiluminescence. Reactions were conducted in 384-well white, medium binding microtiter plates (Greiner). Kinase reactions were initiated by combining test compounds, ATP, substrate (PIP2), and kinase in a 20 μL volume in a buffer solution. The standard PI3Kalpha assay buffer was composed 50 mM Tris, pH 7.5, 1 mM EGTA, 10 mM MgCl2, 1 mM DTT and 0.03% CHAPS. The standard assay concentrations for enzyme, ATP, and substrate were 3 nM, 1 μM, and 10 μM, respectively. The reaction mixture was incubated at ambient temperature for approximately 2 h. Following the kinase reaction, a 10 μL aliquot of luciferase-luciferin mix (Promega Kinase-Glo) was added and the chemiluminescence signal measured using a Victor2 or EnVision (Perkin Elmer). Total ATP consumption was limited to 40-60% and IC50 values of control compounds correlate well with literature references. Substituting PI3Kα with PI3Krβ, PI3Kγ, or PI3Kδ, the inhibitory activity of the compounds for the other isoforms of PI3K were measured. For the PI3Kβ and PI3Kδ assays, enzyme concentrations were 10 nM and 4 nM, respectively. For the PI3Kγ assay, enzyme concentration was 40 nM, the incubation time was 1 h, and the concentration of MgCl2 in the assay buffer was 5 mM.

Sequence of PI3Kalpha (P42336 whole entry): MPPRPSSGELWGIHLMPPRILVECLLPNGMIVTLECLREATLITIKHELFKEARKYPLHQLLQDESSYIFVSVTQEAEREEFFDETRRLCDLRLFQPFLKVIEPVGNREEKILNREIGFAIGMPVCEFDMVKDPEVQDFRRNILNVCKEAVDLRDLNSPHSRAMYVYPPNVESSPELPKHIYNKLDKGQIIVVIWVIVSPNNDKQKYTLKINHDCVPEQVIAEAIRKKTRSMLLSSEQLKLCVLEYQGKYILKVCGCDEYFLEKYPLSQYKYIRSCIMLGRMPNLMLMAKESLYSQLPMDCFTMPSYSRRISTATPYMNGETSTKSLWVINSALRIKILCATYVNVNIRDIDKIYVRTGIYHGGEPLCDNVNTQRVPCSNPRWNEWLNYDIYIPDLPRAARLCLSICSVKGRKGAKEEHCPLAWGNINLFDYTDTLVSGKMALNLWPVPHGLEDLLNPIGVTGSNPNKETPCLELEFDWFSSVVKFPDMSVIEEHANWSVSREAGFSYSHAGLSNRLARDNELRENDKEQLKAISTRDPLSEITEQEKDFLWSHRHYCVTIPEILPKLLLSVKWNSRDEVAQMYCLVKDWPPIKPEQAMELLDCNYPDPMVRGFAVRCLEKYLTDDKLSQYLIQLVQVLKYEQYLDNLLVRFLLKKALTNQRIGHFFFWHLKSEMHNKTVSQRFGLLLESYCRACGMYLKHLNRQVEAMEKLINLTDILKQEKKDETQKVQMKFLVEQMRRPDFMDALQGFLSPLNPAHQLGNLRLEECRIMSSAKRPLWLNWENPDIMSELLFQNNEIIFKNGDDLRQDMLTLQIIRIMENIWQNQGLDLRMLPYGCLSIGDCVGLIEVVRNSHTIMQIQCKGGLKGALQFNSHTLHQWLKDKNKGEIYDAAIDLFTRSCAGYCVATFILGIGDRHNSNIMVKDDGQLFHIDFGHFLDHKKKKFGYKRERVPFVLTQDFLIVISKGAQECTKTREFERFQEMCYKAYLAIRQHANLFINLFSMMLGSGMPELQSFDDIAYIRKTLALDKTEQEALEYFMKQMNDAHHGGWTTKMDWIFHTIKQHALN
Sequence of PI3Kalpha (P27986 whole entry partner): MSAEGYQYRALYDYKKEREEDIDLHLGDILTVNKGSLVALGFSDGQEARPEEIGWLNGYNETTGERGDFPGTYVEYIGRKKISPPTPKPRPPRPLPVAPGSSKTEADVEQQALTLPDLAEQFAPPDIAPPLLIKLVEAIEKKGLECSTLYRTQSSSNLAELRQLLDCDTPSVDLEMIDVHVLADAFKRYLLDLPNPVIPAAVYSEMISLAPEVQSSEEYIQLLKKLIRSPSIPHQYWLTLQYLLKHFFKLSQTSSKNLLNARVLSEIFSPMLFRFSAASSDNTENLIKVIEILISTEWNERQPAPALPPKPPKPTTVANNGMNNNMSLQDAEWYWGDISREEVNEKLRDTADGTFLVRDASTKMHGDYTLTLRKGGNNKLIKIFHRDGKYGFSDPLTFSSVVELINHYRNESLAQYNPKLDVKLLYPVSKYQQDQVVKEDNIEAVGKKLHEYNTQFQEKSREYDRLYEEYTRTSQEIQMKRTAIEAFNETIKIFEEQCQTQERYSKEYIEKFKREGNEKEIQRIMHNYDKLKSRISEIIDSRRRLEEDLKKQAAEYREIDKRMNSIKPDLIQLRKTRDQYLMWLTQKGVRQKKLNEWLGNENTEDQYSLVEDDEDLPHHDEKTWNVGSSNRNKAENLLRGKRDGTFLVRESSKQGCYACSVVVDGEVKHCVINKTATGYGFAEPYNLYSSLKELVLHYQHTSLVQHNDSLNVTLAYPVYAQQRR

| IC50 [1] | IC50 [2] | Structure (SMILES) |
| --- | --- | --- |
| 100 to 500 nM | ≤ 100 nM | CCc1c(C)nc(CN(C)C)nc1N1CCOc2ccc(-c3cnc4sc(N)nc4c3)cc2C1 [Compound 1, 6-(4-{2-[(dimethylamino)methyl]-5-ethyl-6-methylpyrimidin-4-yl)-2,3,4,5-tetrahydro-1,4-benzoxazepin-7-yl)[1,3]thiazolo[5,4-b]pyridin-2-amine] |
| 500 to 2500 nM | ≤ 100 nM | Cc1nc(CN(C)C)nc(N2CCOc3ccc(-c4cnc5sc(N)nc5c4)cc3C2)c1C [Compound 2, 6-(4-{2-[(dimethylamino)methyl]-5,6-dimethylpyrimidin-4-yl}-2,3,4,5-tetrahydro-1,4-benzoxazepin-7-yl)[1,3]thiazolo[5,4-b]pyridin-2-amine] |
| ≤ 100 nM | ≤ 100 nM | Cc1nc(CO)nc(N2CCOc3ccc(-c4cnc5sc(N)nc5c4)cc3C2)c1C(C)C [Compound 3, {4-[7-(2-amino[1,3]thiazolo[5,4-b]pyridin-6-yl)-2,3-dihydro-1,4-benzoxazepin-4(5H)-yl]-6-methyl-5-(1-methylethyl)pyrimidin-2-yl}methanol] |
| ≤ 100 nM | ≤ 100 nM | CCN(CC)Cc1nc(C)c(C(C)C)c(N2CCOc3ccc(-c4cnc5sc(N)nc5c4)cc3C2)n1 [Compound 4, 6-(4-{2-[(diethylamino)methyl]-6-methyl-5-(1-methylethyl)pyrimidin-4-yl}-2,3,4,5-tetrahydro-1,4-benzoxazepin-7-yl)[1,3]thiazolo[5,4-b]pyridin-2-amine] |
| 100 to 500 nM | ≤ 100 nM | Cc1nc(N)nc(N2CCOc3ccc(-c4cnc5sc(N)nc5c4)cc3C2)c1C [Compound 5, 6-[4-(2-amino-5,6-dimethylpyrimidin-4-yl)-2,3,4,5-tetrahydro-1,4-benzoxazepin-7-yl][1,3]thiazolo[5,4-b]pyridin-2-amine] |
| ≤ 100 nM | ≤ 100 nM | CCc1c(C)nc(N)nc1N1CCOc2ccc(-c3cnc4sc(N)nc4c3)cc2C1 [Compound 6, 6-[4-(2-amino-5-ethyl-6-methylpyrimidin-4-yl)-2,3,4,5-tetrahydro-1,4-benzoxazepin-7-yl][1,3]thiazolo[5,4-b]pyridin-2-amine] |
| ≤ 100 nM | ≤ 100 nM | CCc1c(Cl)nc(N)nc1N1CCOc2ccc(-c3cnc4sc(N)nc4c3)cc2C1 [Compound 7, 6-[4-(2-amino-6-chloro-5-ethylpyrimidin-4-yl)-2,3,4,5-tetrahydro-1,4-benzoxazepin-7-yl][1,3]thiazolo[5,4-b]pyridin-2-amine] |
| ≤ 100 nM | ≤ 100 nM | CC(C)c1c(Cl)nc(N)nc1N1CCOc2ccc(-c3cnc4sc(N)nc4c3)cc2C1 [Compound 8, 6-{4-[2-amino-6-chloro-5-(1-methylethyl)pyrimidin-4-yl]-2,3,4,5-tetrahydro-1,4-benzoxazepin-7-yl}[1,3]thiazolo[5,4-b]pyridin-2-amine] |
| ≤ 100 nM | ≤ 100 nM | CCCc1c(Cl)nc(N)nc1N1CCOc2ccc(-c3cnc4sc(N)nc4c3)cc2C1 [Compound 9, 6-[4-(2-amino-6-chloro-5-propylpyrimidin-4-yl)-2,3,4,5-tetrahydro-1,4-benzoxazepin-7-yl][1,3]thiazolo[5,4-b]pyridin-2-amine] |
| ≤ 100 nM | ≤ 100 nM | CC(C)c1c(F)nc(N)nc1N1CCOc2ccc(-c3cnc4sc(N)nc4c3)cc2C1 [Compound 10, 6-{4-[2-amino-6-fluoro-5-(1-methylethyl)pyrimidin-4-yl]-2,3,4,5-tetrahydro-1,4-benzoxazepin-7-yl}[1,3]thiazolo[5,4-b]pyridin-2-amine] |
| ≤ 100 nM | ≤ 100 nM | C=Cc1c(Cl)nc(N)nc1N1CCOc2ccc(-c3cnc4sc(N)nc4c3)cc2C1 [Compound 11, 6-[4-(2-amino-6-chloro-5-ethenylpyrimidin-4-yl)-2,3,4,5-tetrahydro-1,4-benzoxazepin-7-yl][1,3]thiazolo[5,4-b]pyridin-2-amine] |
| ≤ 100 nM | ≤ 100 nM | COCCc1c(C)nc(N)nc1N1CCOc2ccc(-c3cnc4sc(N)nc4c3)cc2C1 [Compound 12, 6-(4-{2-amino-6-methyl-5-[2-(methyloxy)ethyl]pyrimidin-4-yl)-2,3,4,5-tetrahydro-1,4-benzoxazepin-7-yl)[1,3]thiazolo[5,4-b]pyridin-2-amine] |
| 100 to 500 nM | ≤ 100 nM | COCCc1c(C)nc(CN(C)C)nc1N1CCOc2ccc(-c3cnc4sc(N)nc4c3)cc2C1 [Compound 13, 6-(4-{2-[(dimethylamino)methyl]-6-methyl-5-[2-(methyloxy)ethyl]pyrimidin-4-yl}-2,3,4,5-tetrahydro-1,4-benzoxazepin-7-yl)[1,3]thiazolo[5,4-b]pyridin-2-amine] |
| 100 to 500 nM | ≤ 100 nM | COC(=O)Cc1c(C)nc(CN(C)C)nc1N1CCOc2ccc(-c3cnc4sc(N)nc4c3)cc2C1 [Compound 14, methyl {4-[7-(2-amino[1,3]thiazolo[5,4-b]pyridin-6-yl)-2,3-dihydro-1,4-benzoxazepin-4(5H)-yl]-2-[(dimethylamino)methyl]-6-methylpyrimidin-5-yl}acetate] |
| ≤ 100 nM | ≤ 100 nM | Nc1nc2c(c(N3CCOc4ccc(-c5cnc6sc(N)nc6c5)cc4C3)n1)CCC2 [Compound 15, 6-[4-(2-amino-6,7-dihydro-5H-cyclopenta[d]pyrimidin-4-yl)-2,3,4,5-tetrahydro-1,4-benzoxazepin-7-yl][1,3]thiazolo[5,4-b]pyridin-2-amine] |
| 100 to 500 nM | 100 to 500 nM | Nc1nc(Cl)cc(N2CCOc3ccc(-c4cnc5sc(N)nc5c4)cc3C2)n1 [Compound 16, 6-[4-(2-amino-6-chloropyrimidin-4-yl)-2,3,4,5-tetrahydro-1,4-benzoxazepin-7-yl][1,3]thiazolo[5,4-b]pyridin-2-amine] |
| ≤ 100 nM | ≤ 100 nM | C=Cc1c(N2CCOc3ccc(-c4cnc5sc(N)nc5c4)cc3C2)nc(N)nc1C(F)(F)F [Compound 17, 6-{4-[2-amino-5-ethenyl-6-(trifluoromethyl)pyrimidin-4-yl]-2,3,4,5-tetrahydro-1,4-benzoxazepin-7-yl}[1,3]thiazolo[5,4-b]pyridin-2-amine] |
| 500 to 2500 nM | 100 to 500 nM | Cc1nc(CN(C)C)nc(N2CCOc3ccc(-c4cnc5sc(N)nc5c4)cc3C2)c1CC(=O)O [Compound 18, {4-[7-(2-amino[1,3]thiazolo[5,4-b]pyridin-6-yl)-2,3-dihydro-1,4-benzoxazepin-4(5H)-yl]-2-[(dimethylamino)methyl]-6-methylpyrimidin-5-yl}acetic acid] |
| ≤ 100 nM | ≤ 100 nM | CC(C)c1c(Br)nc(N)nc1N1CCOc2ccc(-c3cnc4sc(N)nc4c3)cc2C1 [Compound 19, 6-{4-[2-amino-6-bromo-5-(1-methylethyl)pyrimidin-4-yl]-2,3,4,5-tetrahydro-1,4-benzoxazepin-7-yl}[1,3]thiazolo[5,4-b]pyridin-2-amine] |
| ≤ 100 nM | – | CNc1nc(C)c(C(C)C)c(N2CCOc3ccc(-c4cnc5sc(N)nc5c4)cc3C2)n1 [Compound 92, 6-{4-[6-methyl-2-(methylamino)-5-(1-methylethyl)pyrimidin-4-yl]-2,3,4,5-tetrahydro-1,4-benzoxazepin-7-yl}[1,3]thiazolo[5,4-b]pyridin-2-amine] |
